Assay results reported in paper PMC5736782, “The Differential Absorption of a Series of P-Glycoprotein Substrates in Isolated Perfused Lungs from Mdr1a/1b Genetic Knockout Mice can be Attributed to Distinct Physico-Chemical Properties: an Insight into Predicting Transporter-Mediated, Pulmonary Specific Disposition” (Pharmaceutical Research, 2017).

Experiments:
[1] = set-up: method as in PMID 12761811; conditions: nebulised solutions, anaesthetised rats, cited from earlier work
[2] = target: mouse Mdr1b (Mus musculus, UniProt P06795); experiment: Gentest ABC transporter membrane ATPase assay; conditions: 0–300 μM, 30 min, 37°C
mouse Mdr1b, sequence (P06795 whole entry): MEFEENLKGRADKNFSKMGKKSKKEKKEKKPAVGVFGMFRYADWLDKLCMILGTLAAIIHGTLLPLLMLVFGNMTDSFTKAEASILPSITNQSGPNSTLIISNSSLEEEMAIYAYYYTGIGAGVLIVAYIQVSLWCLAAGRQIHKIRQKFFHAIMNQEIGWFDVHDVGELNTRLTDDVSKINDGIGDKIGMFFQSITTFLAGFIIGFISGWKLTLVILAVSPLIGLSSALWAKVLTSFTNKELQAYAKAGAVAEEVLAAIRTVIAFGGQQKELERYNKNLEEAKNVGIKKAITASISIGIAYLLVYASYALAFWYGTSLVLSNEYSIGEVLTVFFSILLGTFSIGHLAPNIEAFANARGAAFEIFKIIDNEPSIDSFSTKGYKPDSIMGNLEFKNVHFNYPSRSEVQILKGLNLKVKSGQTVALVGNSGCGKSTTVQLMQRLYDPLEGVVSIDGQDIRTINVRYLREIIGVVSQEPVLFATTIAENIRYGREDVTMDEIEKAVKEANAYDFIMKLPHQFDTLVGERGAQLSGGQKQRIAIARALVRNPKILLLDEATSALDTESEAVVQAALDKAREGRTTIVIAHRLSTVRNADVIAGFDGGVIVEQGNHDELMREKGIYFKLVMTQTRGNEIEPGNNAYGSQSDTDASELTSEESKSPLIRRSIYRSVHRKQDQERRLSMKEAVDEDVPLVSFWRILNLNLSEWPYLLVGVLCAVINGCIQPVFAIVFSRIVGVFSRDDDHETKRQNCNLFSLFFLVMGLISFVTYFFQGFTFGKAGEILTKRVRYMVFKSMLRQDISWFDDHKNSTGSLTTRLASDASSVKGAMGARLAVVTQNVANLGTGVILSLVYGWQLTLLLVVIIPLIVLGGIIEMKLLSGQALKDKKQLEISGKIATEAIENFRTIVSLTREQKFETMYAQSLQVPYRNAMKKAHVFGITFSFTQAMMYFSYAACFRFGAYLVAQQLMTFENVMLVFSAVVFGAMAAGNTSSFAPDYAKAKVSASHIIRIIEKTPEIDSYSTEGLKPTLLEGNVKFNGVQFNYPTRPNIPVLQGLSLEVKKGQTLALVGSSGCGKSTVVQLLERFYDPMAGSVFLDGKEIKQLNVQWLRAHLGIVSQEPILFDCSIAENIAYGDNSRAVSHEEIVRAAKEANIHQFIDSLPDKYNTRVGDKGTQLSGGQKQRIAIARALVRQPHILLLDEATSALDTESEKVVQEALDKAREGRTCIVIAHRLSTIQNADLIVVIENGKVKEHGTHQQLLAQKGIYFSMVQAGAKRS
Text: (§1) The Gentest ATPase assay (Corning, Germany) was used to investigate the binding kinetics of the panel of P-gp substrates against membranes constituted to display human MDR1, mouse Mdr1a, mouse Mdr1b and mouse Bcrp. The assays measure the accumulation of inorganic phosphate (absorbance at 800 nm) produced in the breakdown of ATP to ADP. […] The assays were used in accordance with the manufacturer’s protocol to calculate (GraphPad Prism) the Michaelis-Menten parameters Km and VMAX. For the assay test compounds were serially diluted to produce an assay concentration range of 0–300 μM with the kinetics of ATP turnover examined over 30 min at 37°C.

[3] = target: human MDR1 (Homo sapiens, UniProt P08183); experiment: Gentest ABC transporter membrane ATPase assay; conditions: ATPase, 0–300 μM, 30 min, 37°C
human MDR1, sequence (P08183 whole entry, the tested form may be a part): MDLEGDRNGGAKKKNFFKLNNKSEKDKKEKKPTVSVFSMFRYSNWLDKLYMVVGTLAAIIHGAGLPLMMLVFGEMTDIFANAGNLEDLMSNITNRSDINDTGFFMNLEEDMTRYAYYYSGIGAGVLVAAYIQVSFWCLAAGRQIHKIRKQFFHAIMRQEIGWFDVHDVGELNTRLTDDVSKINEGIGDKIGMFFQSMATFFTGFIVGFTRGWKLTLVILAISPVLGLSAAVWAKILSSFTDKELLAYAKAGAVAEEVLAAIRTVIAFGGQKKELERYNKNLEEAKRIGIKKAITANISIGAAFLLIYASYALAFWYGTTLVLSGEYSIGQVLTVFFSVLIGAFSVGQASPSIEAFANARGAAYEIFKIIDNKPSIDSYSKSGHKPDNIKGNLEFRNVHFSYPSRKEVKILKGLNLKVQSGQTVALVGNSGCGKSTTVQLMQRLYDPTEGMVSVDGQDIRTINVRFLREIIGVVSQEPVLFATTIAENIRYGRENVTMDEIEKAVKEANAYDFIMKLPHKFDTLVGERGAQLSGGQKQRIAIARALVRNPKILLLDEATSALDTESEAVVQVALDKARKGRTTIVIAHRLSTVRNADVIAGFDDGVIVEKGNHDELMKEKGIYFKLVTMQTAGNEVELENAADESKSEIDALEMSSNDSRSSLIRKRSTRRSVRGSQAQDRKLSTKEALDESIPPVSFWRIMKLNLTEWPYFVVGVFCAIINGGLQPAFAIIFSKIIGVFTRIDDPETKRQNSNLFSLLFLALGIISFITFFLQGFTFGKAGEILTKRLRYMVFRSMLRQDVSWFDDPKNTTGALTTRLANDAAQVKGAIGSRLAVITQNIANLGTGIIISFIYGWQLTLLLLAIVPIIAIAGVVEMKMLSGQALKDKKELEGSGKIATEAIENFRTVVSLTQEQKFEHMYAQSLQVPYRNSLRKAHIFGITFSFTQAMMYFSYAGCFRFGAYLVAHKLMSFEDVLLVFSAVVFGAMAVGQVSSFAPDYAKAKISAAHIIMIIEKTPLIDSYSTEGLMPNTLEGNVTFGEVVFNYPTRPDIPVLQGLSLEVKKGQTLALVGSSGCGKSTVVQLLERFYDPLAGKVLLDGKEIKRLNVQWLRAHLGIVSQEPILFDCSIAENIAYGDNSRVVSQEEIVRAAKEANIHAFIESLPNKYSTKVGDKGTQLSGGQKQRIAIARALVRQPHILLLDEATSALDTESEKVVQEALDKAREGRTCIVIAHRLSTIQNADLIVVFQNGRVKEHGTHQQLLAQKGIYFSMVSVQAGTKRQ
Text: as §1

[4] = system: P-glycoprotein (Mdr1a/Mdr1b) in isolated perfused mouse lung; experiment: Isolated perfused mouse lung (IPML) airway-to-perfusate absorption, Mdr1a/1b (+/+) vs (−/−); conditions: for Mdr1a/1b (+/+) ‘F’ estimate by model fit [95% CI) / Mdr1a/1b (-/-) ‘F’ estimate by model fit [95% CI) / Ratio AUCs (-/-) : (+/+) / Mdr1a/1b (+/+) % Deposited Dose absorbed / Mdr1a/1b (-/-) % Deposited Dose absorbed: male, mouse, 50 μM; for Mdr1a/1b (+/+) % Deposited Dose absorbed / Mdr1a/1b (-/-) % Deposited Dose absorbed: 30 min
Method: The atria and the lower half of the heart were cut to allow the free flow of perfusate. The lungs were removed and suspended vertically in a custom water-jacketed glass thorax (Radleys, Essex, UK) maintained at 37°C.
Following dosing of compound into the IPML airways serial samples (250 μL) were collected for bioanalysis from the 10 mL recirculating perfusate reservoir. Each sample collected from the reservoir was replaced with an equal volume of fresh warmed, oxygenated perfusate. Upon termination of the experiment the dose solutions, apparatus washings and perfusate samples were collected for mass balance calculations enabling determination of the actual total dose delivered to the lungs.
Radioactive compounds were directly analysed by liquid scintillation counting. Volumes of 50 μL perfusate samples were mixed with 3 mL of Scintisafe 3 Liquid Scintillation Fluid (Fisher, UK) and transferred to vials for scintillation counting using a TriCarb 2900TR (Packard Bioscience, USA).
After accounting for the mass of compound removed at each sample point, plots of the cumulative ‘%deposited dose absorbed’ versus ‘time’ were generated and subject to nonlinear regression analysis according to a first-order absorption one-compartment accumulating model (Eq. 1) to generate estimates for the extent (F) and rate (Ka) of absorption from the IPML airways to the recirculating perfusate.
The data was also subject to standard non-compartmental analysis, specifically Area Under Curve (AUC0–30 min) of ‘%deposited dose absorbed’ versus ‘time’ (units: %Dose.min) and reflecting for the exclusively accumulating perfusate ‘compartment’ the exposure arising from the IPML absorption process alone.

[5] = system: P-gp (Mdr1a/1b) in mouse intestinal segments; experiment: Ussing chamber intestinal permeability, ileal segments Mdr1a/1b (+/+) vs (−/−); conditions: for Mdr1a/1b (−/−) Permeability coefficient: P-gp knockout intestinal segments; for Mdr1a/1b (−/−) Permeability coefficient / Mdr1a/1b (+/+) Permeability coefficient: mucosal to serosal, 50 μM, 180 min; for Ratio Permeability (−/−): (+/+): intestinal Papp KO:WT; for Mdr1a/1b (+/+) Permeability coefficient: wild-type intestinal segments
[6] = Immobilised artificial membrane (IAM) chromatography; format: physicochemical; conditions: extrapolated to 100% water; mean of four experiments
Method: IAM chromatography provided an experimental measure of substrate membrane affinity and phospholipid interaction. The IAM column (Regis Technologies Inc., Hichrom, Reading, UK; IAM.PC.DD2 10 cm x 4.6 mm ID column) was run under isocratic eluting conditions with the retention of all compounds determined under three mobile phase conditions: 10%, 20% and 30% acetonitrile in water, and from which the theoretical retention time in 100% water was calculated by linear regression. LogK^IAM values were calculated according to Eq. 2:2 LogK^IAM=LogTr−T0/T0
where Tr and T0 are respectively the retention times of the substrate in 100% water and of the unretained compound, i.e. eluting within the solvent front of 75 s in all experiments.

[7] = target: T1, mouse Bcrp (Mus musculus, UniProt Q7TMS5); experiment: Gentest ABC transporter membrane ATPase assay; format: biochemical; conditions: ATPase; 0 indicates no enzyme turnover
T1 construct: purchased Corning (Gentest), Germany
T1 sequence (Q7TMS5 1-657): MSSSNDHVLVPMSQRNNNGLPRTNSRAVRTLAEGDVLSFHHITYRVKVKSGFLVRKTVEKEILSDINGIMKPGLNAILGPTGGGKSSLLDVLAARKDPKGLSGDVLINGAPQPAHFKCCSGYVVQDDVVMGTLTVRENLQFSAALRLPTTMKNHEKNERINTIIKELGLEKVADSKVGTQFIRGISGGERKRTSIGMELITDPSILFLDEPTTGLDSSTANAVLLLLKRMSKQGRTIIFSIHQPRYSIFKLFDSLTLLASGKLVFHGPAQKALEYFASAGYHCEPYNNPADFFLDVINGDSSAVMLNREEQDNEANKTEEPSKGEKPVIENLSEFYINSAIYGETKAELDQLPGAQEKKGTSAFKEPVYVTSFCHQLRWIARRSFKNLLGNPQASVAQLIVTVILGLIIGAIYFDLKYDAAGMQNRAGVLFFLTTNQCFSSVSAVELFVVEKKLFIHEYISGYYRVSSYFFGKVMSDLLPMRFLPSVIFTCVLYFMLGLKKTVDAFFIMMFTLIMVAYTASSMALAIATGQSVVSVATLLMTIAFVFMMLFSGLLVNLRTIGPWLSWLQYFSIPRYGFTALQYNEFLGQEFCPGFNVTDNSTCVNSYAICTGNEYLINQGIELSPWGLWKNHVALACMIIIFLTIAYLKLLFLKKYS
Text: as §1

[8] = Multi-lamellar liposome vesicle (MLV) partitioning; format: physicochemical; conditions: (C0−CS)/C0, 1 μg/mL, 4 h, 37°C, PBS pH 7.4
Method: MLVs were formed as previously described ([20]). Briefly, solutions of 8 mg phosphatidylcholine and 2 mg phosphatidylglycerol in 10 mL chloroform were completely dried to a lipid film (rotation under vacuum).
These preparations were then incubated at 37°C for 4 h under shaking conditions to allow equilibration of compound between the lipid and aqueous fractions. The MLVs were then pelleted and 100 μL of supernatant removed for analysis by radiometric or LC-MS/MS methods as described above. Partitioning into the MLVs was determined according to Eq. 3:3 MLVpartitioning=C0−CS/C0
where C0 is the initial compound concentration (1 μg/mL) and CS is the compound concentration present in the aqueous supernatant at the end of 4 h incubation.

[9] = target: mouse Mdr1a (Mus musculus, UniProt P21447); experiment: Gentest ABC transporter membrane ATPase assay; conditions: 0–300 μM, 30 min, 37°C
mouse Mdr1a, sequence (P21447 whole entry): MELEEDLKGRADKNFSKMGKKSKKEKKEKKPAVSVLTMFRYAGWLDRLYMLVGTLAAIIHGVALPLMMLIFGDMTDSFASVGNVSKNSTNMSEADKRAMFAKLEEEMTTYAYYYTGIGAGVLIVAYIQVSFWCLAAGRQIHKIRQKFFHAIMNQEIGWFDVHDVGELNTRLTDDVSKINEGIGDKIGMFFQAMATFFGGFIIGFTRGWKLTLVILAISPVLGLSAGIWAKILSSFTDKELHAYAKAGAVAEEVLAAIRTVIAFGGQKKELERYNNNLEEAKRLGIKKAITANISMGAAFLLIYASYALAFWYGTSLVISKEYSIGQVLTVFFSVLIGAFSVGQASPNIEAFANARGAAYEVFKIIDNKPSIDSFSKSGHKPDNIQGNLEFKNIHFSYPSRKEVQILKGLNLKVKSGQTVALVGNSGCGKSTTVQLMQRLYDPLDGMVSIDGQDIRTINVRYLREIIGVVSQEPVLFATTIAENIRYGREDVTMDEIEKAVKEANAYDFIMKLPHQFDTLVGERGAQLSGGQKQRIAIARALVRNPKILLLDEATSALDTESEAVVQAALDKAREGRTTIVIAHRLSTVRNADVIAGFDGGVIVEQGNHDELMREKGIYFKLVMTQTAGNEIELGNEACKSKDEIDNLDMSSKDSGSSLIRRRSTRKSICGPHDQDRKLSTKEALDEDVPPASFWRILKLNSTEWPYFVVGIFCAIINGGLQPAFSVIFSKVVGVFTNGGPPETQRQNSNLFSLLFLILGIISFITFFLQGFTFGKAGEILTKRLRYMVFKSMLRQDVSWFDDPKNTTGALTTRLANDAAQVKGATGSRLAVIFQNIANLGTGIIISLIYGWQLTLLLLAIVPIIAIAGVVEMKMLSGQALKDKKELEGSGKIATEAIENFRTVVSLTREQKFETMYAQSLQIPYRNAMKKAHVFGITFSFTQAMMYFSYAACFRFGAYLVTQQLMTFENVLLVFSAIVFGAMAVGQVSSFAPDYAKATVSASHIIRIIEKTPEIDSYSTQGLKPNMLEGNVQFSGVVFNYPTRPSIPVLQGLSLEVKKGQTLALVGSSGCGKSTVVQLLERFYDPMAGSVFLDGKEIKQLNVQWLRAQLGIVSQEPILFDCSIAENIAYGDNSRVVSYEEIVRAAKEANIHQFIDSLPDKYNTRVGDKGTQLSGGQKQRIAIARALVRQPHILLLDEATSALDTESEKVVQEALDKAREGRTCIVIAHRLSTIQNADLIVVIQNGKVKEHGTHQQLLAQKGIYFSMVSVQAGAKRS
Text: as §1

[10] = set-up: method as in PMID 4654354; conditions: cited from earlier work
[11] = system: P-gp; set-up: method as in PMID 23670704; conditions: IPRL and IPML models; cited from earlier work

CCCCc1nc(Cl)c(CO)n1Cc1ccc(-c2ccccc2-c2nn[nH]n2)cc1 [losartan]
extent of pulmonary absorption ([1]; mM concentrations): 92% | t^1/2absorption [1]: 5 min

CCc1cc2c(cc1CC)CC(NC[C@H](O)c1ccc(O)c3[nH]c(=O)ccc13)C2 [Indacaterol, indacaterol]
Vmax [2]: 132 µM/min | Vmax [3]: 81.1 µM/min | Group (impact of Mdr1a/1b knockout on IPML absorption) [4]: GROUP B | Mdr1a/1b (+/+) ‘F’ estimate by model fit [95% CI) [4]: 29.3 [25.5 to 33.1] | Mdr1a/1b (-/-) ‘F’ estimate by model fit [95% CI) [4]: 40.6 [36.7 to 44.5] | Ratio AUCs (-/-) : (+/+) [4]: 1.37 | Mdr1a/1b (+/+) % Deposited Dose absorbed [4]: 27.6% | Mdr1a/1b (-/-) % Deposited Dose absorbed [4]: 37.3% | Mdr1a/1b (−/−) Permeability coefficient [5]: 29.22 ± 4.40 cm/s (x10^−6) | Ratio Permeability (−/−): (+/+) [5]: 1.92 | Mdr1a/1b (+/+) Permeability coefficient [5]: 15.2 ± 2.79 cm/s (x10^−6) | LogK^IAM [6]: 1.23 | Vmax [7]: 0 µM/min | MLV Partitioning [8]: 0.92 | Vmax [9]: 119 µM/min

OCc1cc(C(O)CNCCCCCCOCCCCc2ccccc2)ccc1O (centres unmarked) [Salmeterol, salmeterol]
Vmax [2]: 38.2 µM/min | Vmax [3]: 24.4 µM/min | Group (impact of Mdr1a/1b knockout on IPML absorption) [4]: GROUP B | Mdr1a/1b (+/+) ‘F’ estimate by model fit [95% CI) [4]: 42.9 [34.6 to 47.2] | Mdr1a/1b (-/-) ‘F’ estimate by model fit [95% CI) [4]: 57.3 [48.3 to 66.3] | Ratio AUCs (-/-) : (+/+) [4]: 1.37 | Mdr1a/1b (+/+) % Deposited Dose absorbed [4]: 36.7% | Mdr1a/1b (-/-) % Deposited Dose absorbed [4]: 48.7% | Mdr1a/1b (−/−) Permeability coefficient [5]: 18.33 ± 2.38 cm/s (x10^−6) | Ratio Permeability (−/−): (+/+) [5]: 1.16 | Mdr1a/1b (+/+) Permeability coefficient [5]: 15.8 ± 2.16 cm/s (x10^−6) | LogK^IAM [6]: 1.60 | Vmax [7]: 0 µM/min | MLV Partitioning [8]: 0.80 | Vmax [9]: 27.5 µM/min

inulin
absorbed from the lung [10]: 17 % of administered dose | absorbed from the small intestine [10]: < 2%

CC[C@H]1OC(=O)[C@H](C)[C@@H](O[C@H]2C[C@@](C)(OC)[C@@H](O)[C@H](C)O2)[C@H](C)[C@@H](O[C@@H]2O[C@H](C)C[C@H](N(C)C)[C@H]2O)[C@](C)(O)C[C@@H](C)C(=O)[C@H](C)[C@@H](O)[C@]1(C)O [Erythromycin, erythromycin]
Vmax [2]: 48.5 µM/min | Group (impact of Mdr1a/1b knockout on IPML absorption) [4]: GROUP A | Mdr1a/1b (+/+) % Deposited Dose absorbed [4]: 55.5% | Mdr1a/1b (-/-) % Deposited Dose absorbed [4]: 54.1% | Mdr1a/1b (−/−) Permeability coefficient [5]: 13.70 ± 4.54 cm/s (x10^−6) | Mdr1a/1b (+/+) Permeability coefficient [5]: 3.02 ± 1.15 cm/s (x10^−6) | LogK^IAM [6]: 0.88 | Vmax [7]: 0 µM/min | MLV Partitioning [8]: 0.46 | Vmax [9]: 28.4 µM/min

CN(C)C(=O)C(CCN1CCC(O)(c2ccc(Cl)cc2)CC1)(c1ccccc1)c1ccccc1 [loperamide]
effect of P-gp inhibition (GF120918) upon pulmonary absorption [11]: affected

O=c1[nH]c2ccccc2n1CCCN1CCC(n2c(=O)[nH]c3cc(Cl)ccc32)CC1 [Domperidone, domperidone]
LogK^IAM [6]: 1.33 | MLV Partitioning [8]: 0.92
